Patent publication US8247227B2, “Dendritic cell precursors” (The Cleveland Clinic Foundation, priority 2006, dated 2012)

Columns and labels:
[1] = tested on: Flt3L+IL6 conditioned BM cells; assay: Immunosuppressive factors added to Step 2 culture: DC1 polarization; type: cell-based, mouse; conditions: factor added in Step 2, TLR agonist-induced
Description: FIG. 7A is a histogram showing Step 2 cultures (cells were re-plated in GMCSF and IL-4 at 0 hr, CpG+LPS added at 24 hr, FACS performed at 44 hr), except that listed immunosuppressive factors were added at 0 hr, 1 hr, 2 hr, or 4 hr of Step 2 culture, and supernatants analyzed by ELISA in triplicate for IL-12 p70 content at 44 hr of Step 2 culture. Error bars indicate s.d. This is representative of three experiments;
We investigated whether Flt3L+IL6 proliferative conditioning conferred uniform responsiveness to DC1 polarization stimuli even in the presence of putative immunosuppressive factors. We added IL10, TGFβ1 VEGF, or PGE2 at doses which equaled and exceeded those reported to inhibit the maturation of other DC preparations (Kao, J Y et al. J. Immunol. 170, 3806-3811 (2003); Kobie, J J et al. Cancer Res. 63, 1860-1864 (2003); Gabrilovich, D. et al. Blood 92, 4150-4166 (1998); Dikov, M M et al. J. Immunol. 174, 215-222 (2005); Shurin, M R et al. Int. J. Cancer 101, 61-68 (2002); Yang, A S et al. Cancer Res. 63, 2150-2157 (2003); Kalinski, P. et al. J. Immunol. 161, 2804-2809 (1998)).
(§1) Step 2 was initiated (0 hr) in CM, rmGMCSF and optionally rmIL4. Step 2 cultures were performed in 24 well cluster plates, 4 million BM cells per well in 2 ml CM. DC1 polarization stimuli such as CpG (ODN 1826, 5 μM) and LPS 50 ng/ml were added between 18-24 hrs, and cells harvested at 40-44 hrs for analyses. When included, immunosuppressive agents rmIL10, rmVEGF, rhTGFβ1 or PGE2 were added between 0 and 24 hrs of Step 2 culture at doses specified in Results. Alternatively, particulate tumor cells, either viable unirradiated, viable irradiated (10,000 cGy), or killed freeze-thawed lysate (Cohen, P A et al. Cancer Res. 54, 1055-1058 (1994)), were added to Step 2 BM cells. Viable tumor cells were sometimes labelled with CFSE (Molecular Probes, Eugene, Oreg.) to allow their identification and exclusion during subsequent FACS analyses (Peng, L. et al. J. Immunol. 169, 4811-4821 (2002)).

L-selectin^low T cells = assay: T cell co-cultures with variously conditioned DCs; type: cell-based, mouse; conditions: DCs from other conditioning treatments
Description: Step 2 DC cultures were performed in rGMCSF and rIL-4 with irradiated MCA-203 cells added at 24 hr and CpG+LPS added at 44 hr. Four hours later, DCs were harvested for co-culture with L-selectin^low T cells freshly harvested from MCA-203 tumor-bearing mice. T cells were co-cultured with DCs at an 8:1 ratio or were activated with immobilized anti-CD3. […] Cultures shown also received exogenous IL-2, IL-7 and IL-15.
Cultures shown also received exogenous IL2, IL7 and IL15.
Conditioned DC precursors were transferred to Step 2 culture, exposed to viable irradiated tumor, optionally further activated with CpG+LPS, then co-cultured with tolerized TDLN T cells from mice bearing the relevant tumor.
Prior to harvest of T cells from tumor-bearing mice, DCs were prepared under various Step 1 conditions in CM; Step 2 was performed in 1% non heat-deactivated mouse serum instead of FCS (CM-MS), during which BM cultures were exposed to viable irradiated tumor cells, then CpG+LPS as denoted in Results. On the day of DC harvest, T cells were freshly harvested from the tumor-draining lymph nodes of mice bearing 12 day tumors. The L-selectin^low (tolerized pre-effector) fraction of T cells was isolated by negative selection as described previously (Peng, L. et al. J. Immunol. 165, 5738-5749 (2000); Wang, L. et al. J. Translational Med. 2, 41 (2004)), and cultured in CM-MS with immobilized anti-CD3 (Peng, L. et al. J. Immunol. 165, 5738-5749 (2000); Wang, L. et al. J. Translational Med. 2, 41 (2004)) or variously conditioned DCs. Beginning on day 2 of T cell culture, some groups also received rhIL2 (24 I.U./m1), or rhIL2, rhIL7 (50 ng/ml) and rhIL15 (5 ng/ml). T cells were harvested for assays and adoptive therapy after 12 days of culture.

[2] = tested on: CD34^pos stem cell subpopulation; assay: Step 1 proliferative culture of fresh bone marrow: numeric expansion; type: cell-based, mouse; conditions: for superimposed proliferative impacts: added to Step 1 culture; for effectiveness as alternative Step 1 factor: rhIL6 100 ng/ml instead of mIL6, rSCF instead of mSCF
Description: FIG. 6 is a chart showing numeric expansion resulting from the exposure of bone marrow (BM) suspensions to various factors. BM freshly harvested from C57BL/6 mice was cultured for 6 days in the specific factors, then harvested and counted. Each bar represents 3-11 determinations±s.d., each performed in synchronous comparison to at least five other groups. […] Synergistic expansions reflected a 35-80 fold selective outgrowth of the CD34^pos subpopulation (see FIG. 10);
FIG. 10 is a histogram showing gross numeric expansion of fresh bone marrow (BM) reflective of selective outgrowth of the CD34^pos subpopulation. Freshly prepared mouse BM cell suspensions were stained with FITC-anti-CD34 mAb to enable isolation of CD34^pos and CD34^neg subpopulations by a FACSAria cell sorter. CD34^pos cells initially represented 10.8±7% of the total BM cells. The following groups were then cultured for 6 days in 75 cm^2 flasks, either in Flt3L+SCF+IL6 (striped bars) or in Flt3L+IL6 (solid bars): “Unfractionated BM” (12-15 million per flask); “FACS sorted CD34^neg cells” (12-15 million per flask); “FACS sorted CD34^pos cells” (2-3 million per flask); or “FACS sorted, unirradiated CD34^pos cells plus irradiated (3,000 cGy) CD34^neg cells.” Labels above bars indicate fold numeric expansion during the 6 day culture. […] (Not done=group not done);
We cultured fresh mouse BM in two stages, a 6-7 day proliferative phase (Step 1) and a 2-3 day post-proliferative phase (Step 2). […] FACS sorting experiments confirmed that such expansion represented a net 35-80 fold proliferation of the minor (<12%) CD34^pos stem cell subpopulation, with rapid dropout of the initially CD34^neg subpopulation (FIG. 10). Stem cell proliferation persisted well past day 7 if medium and factors were adequately replenished (not shown).
Single cell suspensions were prepared from the femurs and tibias of healthy mice (Kuriyama, H. et al. Dev. Biol. (Basel) 116, 169-178 (2004)). Following RBC lysis by ammonium chloride, no further processing was performed. […] BM cells were normally cultured for 6-7 days, harvested, counted, and washed twice in PBS prior to initiation of Step 2 cultures.

[3] = tested on: CD11c^pos cells and CD34^pos cells; assay: In vivo cytokine treatment for six days: spleen and BM CD11c^pos and CD34^pos cells; parameters: species or system BALB/c mice; conditions: with rhFlt3-L 10 mcg i.p. daily
Description: FIGS. 15A-D are a series of graphs showing BALB/c mice treated for six days with either (A) nothing, (B) rhFlt3-L 10 mcg i.p. daily, (C) rhIL-6 mcg i.p. three times daily, and (D) rhFlt3-L 10 mcg i.p. daily plus rhIL-6 50 mcg i.p. three times daily. The next day mice were euthanized, spleens and BM harvested, and CD11c^pos cells (committed DC lineage) and CD34^pos cells (stem cells, potential DC precursors) quantified. Results are representative of four experiments. […] This is representative of four experiments;
FIGS. 16A-D are a series of graphs showing BALB/c mice treated for six days with either (A) nothing, (B) rhFlt3-L 10 mcg i.p. daily, (C) rhFlt3-L 10 mcg i.p. daily plus rhIL-6 50 mcg i.p. three times daily, (D) rhFlt3-L 10 mcg i.p. daily plus rhIL-6 50 mcg i.p. once daily, (E) rhFlt3-L 10 mcg i.p. daily plus rhIL-6 10 mcg i.p. three times daily, and (F) rhFlt3-L 10 mcg i.p. daily plus rhIL-6 10 mcg i.p. once times daily. The next day mice were euthanized, spleens and BM harvested, and CD11c^pos cells (committed DC lineage) and CD34^pos cells (stem cells, potential DC precursors) quantified. Results are representative of three experiments.

conditioned BM cells = assay: Tumor contact during Step 2 culture: DC maturation and IL12 production; type: cell-based, mouse
Description: Because DC ingestion of cellular material can induce tolerogenic DCs (Bonifaz, L. et al. J. Exp. Med. 196, 1627-1638 (2002)), we tested the impact of exposing DCs to large volumes of tumor at 16-24 hours of Step 2 culture in GMCSF, to determine tumor's impact on subsequent spontaneous maturation. To cluster plate wells each containing 4 million conditioned BM cells, we added either 4 million freeze-thawed (killed) tumor cells; 3 million irradiated (10,000 cGy), trypan-excluding tumor cells; or 2 million unirradiated, actively proliferating tumor cells. Given the much larger dimensions of viable tumor cells compared to the cultured BM cells, these represented voluminous tumor challenges.
as §1

BM cells = assay: Step 2 culture: spontaneous DC maturation without exogenous maturation stimuli; type: cell-based, mouse; conditions: after Flt3L or Flt3L+IL6 conditioning
Text: DC differentiation typically arrests at the immature stage unless DCs are exposed to additional signals such as CD40 ligation, calcium ionophore or TLR agonists (Xu, S. et al. J. Immunol. 171, 2251-2261 (2003); Bonifaz, L. et al. J. Exp. Med. 196, 1627-1638 (2002); Napolitani, G. et al. Nat. Immunol. 6, 769-776 (2005); Czerniecki, B J et al. J. Immunol. 159, 3823-3837 (1997); Mailliard, R B et al. Cancer Res. 64, 5934-5937 (2004)). […] Instead, uniform upregulation of MHC Class II and CD11c ensued within hours of transfer from Flt3L+IL6 into GMCSF, followed by upregulation of CD40, co-stimulatory molecules and CCR7 between 48 and 72 hours of Step 2 culture.
as §1

## CCCCC[C@H](O)/C=C/[C@H]1[C@H](O)CC(=O)[C@@H]1C/C=C\CCCC(=O)O [PGE2, prostaglandin E2, reference compound]
[1]
  impact upon DC1 polarization (phenotypic maturation, IL12): substantially inhibited

## IL15
L-selectin^low T cells
  rescue of DC toxicity to T cells by exogenous cytokine: could not be rescued

## TGFI31: immunosuppressive factor, recombinant human TGFβ1
[1]
  impact upon DC1 polarization (phenotypic maturation, IL12): paradoxically enhanced both phenotypic maturation and IL12 secretion

## VEGF
[1]
  impact upon DC1 polarization (phenotypic maturation, IL12): negligible impacts

## fibronectin
[2]
  superimposed proliferative impacts: negligible superimposed proliferative impacts

## rhIL6: recombinant human interleukin-6
[2]
  effectiveness as alternative Step 1 factor: also effective
[3]
  10 mcg versus 50 mcg dosing: as effective as 50 mcg dosing
  thrice daily versus once daily administration: more effective than once daily

B1: IFNγ: recombinant mouse interferon gamma (protein, UniProt P01580 23-155, looked up)
Interferon gamma: HGTVIESLESLNNYFNSSGIDVEEKSLFLDIWRNWQKDGDMKILQSQIISFYLRLFEVLKDNQAISNNISVIESHLITTFFSNSKAKKDAFMSIAKFEVNNPQVQRQAFNELIRVVHQLLPESSLRKRKRSRC
Conditioned BM cells; IFNγ treatment alone
  IL12 production: Neither tumor nor IFNγ treatment alone induced IL12 production
Conditioned BM cells; tumor exposure combined with IFNγ, Flt3L+IL6 conditioned
  IL12 (p70) production: could induce IL12 (p70) production

B2: thrombopoeitin: recombinant murine thrombopoeitin (protein, UniProt P40226 22-356, looked up)
Thrombopoietin: SPVAPACDPRLLNKLLRDSHLLHSRLSQCPDVDPLSIPVLLPAVDFSLGEWKTQTEQSKAQDILGAVSLLLEGVMAARGQLEPSCLSSLLGQLSGQVRLLLGALQGLLGTQLPLQGRTTAHKDPNALFLSLQQLLRGKVRFLLLVEGPTLCVRRTLPTTAVPSSTSQLLTLNKFPNRTSGLLETNFSVTARTAGPGLLSRLQGFRVKITPGQLNQTSRSPVQISGYLNRTHGPVNGTHGLFAGTSLQTLEASDISPGAFNKGSLAFNLQGGLPPSPSLAPDGHTPFPPSPALPTTHGSPPQLHPLFPDPSTTMPNSTAPHPVTMYPHPRNLSQET
[2]
  superimposed proliferative impacts: negligible superimposed proliferative impacts

B3: IL4: recombinant mouse IL4 (protein, UniProt P07750 21-140, looked up)
Interleukin-4: HIHGCDKNHLREIIGILNEVTGEGTPCTEMDVPNVLTATKNTTESELVCRASKVLRIFYLKHGKTPCLKKNSSVLMELQRLFRAFRCLDSSISCTMNESKSTSLKDFLESLKSIMQMDYS
BM cells
  spontaneous DC maturation with exogenous IL4 in Step 2: even more robust

B4: IL7 (protein, UniProt P13232 26-177, looked up)
Interleukin-7: DCDIEGKDGKQYESVLMVSIDQLLDSMKEIGSNCLNNEFNFFKRHICDANKEGMFLFRAARKLRQFLKMNSTGDFDLHLLKVSEGTTILLNCTGQVKGRKPAALGEAQPTKSLEENKSLKEQKKLNDLCFLKRLLQEIKTCWNKILMGTKEH
L-selectin^low T cells
  rescue of DC toxicity to T cells by exogenous cytokine: could not be rescued

B5: rSCF: recombinant stem cell factor, alternative to mSCF (protein, UniProt P20826 26-190, looked up)
Soluble KIT ligand: KEICGNPVTDNVKDITKLVANLPNDYMITLNYVAGMDVLPSHCWLRDMVIQLSLSLTTLLDKFSNISEGLSNYSIIDKLGKIVDDLVLCMEENAPKNIKESPKRPETRSFTPEEFFSIFNRSIDAFKDFMVASDTSDCVLSSTLGPEKDSRVSVTKPFMLPPVAA
[2]
  effectiveness as alternative Step 1 factor: also effective

B6: IL10: immunosuppressive factor, recombinant mouse IL10 (protein, UniProt P18893 19-178, looked up)
Interleukin-10: SRGQYSREDNNCTHFPVGQSHMLLELRTAFSQVKTFFQTKDQLDNILLTDSLMQDFKGYLGCQALSEMIQFYLVEVMPQAEKHGPEIKEHLNSLGEKLKTLRMRLRRCHRFLPCENKSKAVEQVKSDFNKLQDQGVYKAMNEFDIFINCIEAYMMIKMKS
[1]
  impact upon DC1 polarization (phenotypic maturation, IL12): negligible impacts
